Consider 21 compounds from patent US20100105655A1, “NOVEL COMPOUNDS 515” (ASTRAZENECA AB, priority 2008, published 2010).

In this experiment the target is T1, IGFR kinase (Homo sapiens, UniProt P08069).
T1 construct: purchased Millipore
T1 sequence (P08069 31-1367): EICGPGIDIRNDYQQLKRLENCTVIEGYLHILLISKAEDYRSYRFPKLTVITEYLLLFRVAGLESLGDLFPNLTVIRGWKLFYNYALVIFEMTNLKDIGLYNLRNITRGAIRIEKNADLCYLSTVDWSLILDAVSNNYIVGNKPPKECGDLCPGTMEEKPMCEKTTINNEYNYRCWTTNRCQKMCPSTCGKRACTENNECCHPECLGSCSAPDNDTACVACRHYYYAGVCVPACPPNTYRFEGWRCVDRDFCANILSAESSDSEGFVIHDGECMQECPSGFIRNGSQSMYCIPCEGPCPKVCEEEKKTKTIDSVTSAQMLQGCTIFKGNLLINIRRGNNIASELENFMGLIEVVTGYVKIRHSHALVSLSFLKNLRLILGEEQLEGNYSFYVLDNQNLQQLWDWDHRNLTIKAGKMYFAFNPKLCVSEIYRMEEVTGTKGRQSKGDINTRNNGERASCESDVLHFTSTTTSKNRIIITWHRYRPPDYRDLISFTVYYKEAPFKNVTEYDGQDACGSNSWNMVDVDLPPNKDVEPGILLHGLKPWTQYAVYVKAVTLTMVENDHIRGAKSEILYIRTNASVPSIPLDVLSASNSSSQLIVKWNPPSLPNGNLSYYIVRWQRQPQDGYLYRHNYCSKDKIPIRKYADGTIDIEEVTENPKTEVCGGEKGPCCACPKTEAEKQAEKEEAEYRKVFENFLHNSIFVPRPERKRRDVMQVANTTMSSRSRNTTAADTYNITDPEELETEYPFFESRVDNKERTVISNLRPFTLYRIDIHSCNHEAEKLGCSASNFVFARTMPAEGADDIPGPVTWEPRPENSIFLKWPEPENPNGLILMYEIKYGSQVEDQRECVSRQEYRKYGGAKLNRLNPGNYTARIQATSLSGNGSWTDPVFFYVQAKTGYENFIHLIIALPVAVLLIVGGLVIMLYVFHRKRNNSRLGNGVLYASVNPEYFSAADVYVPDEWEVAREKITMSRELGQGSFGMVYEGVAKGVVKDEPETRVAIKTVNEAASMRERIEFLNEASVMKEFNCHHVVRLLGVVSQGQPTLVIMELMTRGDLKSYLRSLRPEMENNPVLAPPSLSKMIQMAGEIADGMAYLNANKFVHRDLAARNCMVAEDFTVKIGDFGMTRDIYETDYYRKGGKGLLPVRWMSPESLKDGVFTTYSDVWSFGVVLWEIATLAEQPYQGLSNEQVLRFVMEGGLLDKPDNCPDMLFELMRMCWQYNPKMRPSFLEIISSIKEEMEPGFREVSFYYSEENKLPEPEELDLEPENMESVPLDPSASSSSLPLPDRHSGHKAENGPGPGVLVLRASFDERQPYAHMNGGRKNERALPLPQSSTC
The experiment can be described thus: Enzyme assay (c), IGFR kinase, Caliper LabChip. The class given is biochemical. Particulars: 30 nM IGFR kinase, 6 uM ATP, 3 uM peptide mix; read-out: IGFR IC50.
In general, IC50 refers to the point on the concentration scale where inhibition reaches its midpoint. As for `COc1cc(N2CC3CN(CC(=O)N(C)C)CC(C2)O3)ccc1Nc1ncc(Cl)c(-c2cnc3c(F)cccn23)n1` [Example 205, 2-[3-[4-[[5-chloro-4-(8-fluoroimidazo[1,2-a]pyridin-3-yl)pyrimidin-2-yl]amino]-3-methoxy-phenyl]-9-oxa-3,7-diazabicyclo[3.3.1]nonan-7-yl]-N,N-dimethyl-acetamide], the half-inhibitory concentration (IC50) was 7 nM.

As for `COc1cc(C2CCN(C(=O)[C@@H](C)O)CC2)ccc1Nc1ncc(Cl)c(-c2cnc3ccccn23)n1` [Example 28.2, (2R)-1-[4-[4-[(5-chloro-4-imidazo[1,2-a]pyridin-3-yl-pyrimidin-2-yl)amino]-3-methoxy-phenyl]-1-piperidyl]-2-hydroxy-propan-1-one], the IC50 turned out to be 6 nM. As for `COc1cc(N(C)CC(=O)N(C)C)ccc1Nc1ncc(Cl)c(-c2cnc3c(F)cccn23)n1` [Example 225, 2-[4-[[5-chloro-4-(8-fluoroimidazo[1,2-a]pyridin-3-yl)pyrimidin-2-yl]amino]-3-methoxy-N-methyl-anilino]-N,N-dimethyl-acetamide], the half-inhibitory concentration (IC50) turned out to be 130 nM. For `COc1cc(N2CCN(C(=O)CO)CC2)ccc1Nc1ncc(Cl)c(-c2cnc3c(F)cc(F)cn23)n1` [Example 250, 1-[4-[4-[[5-chloro-4-(6,8-difluoroimidazo[1,2-a]pyridin-3-yl)pyrimidin-2-yl]amino]-3-methoxy-phenyl]piperazin-1-yl]-2-hydroxy-ethanone], the IC50 is 7 nM.

`COc1cc(N2CCN(CCO)CC2)ccc1Nc1ncc(C)c(-c2cnc3ccccn23)n1` [Example 101, 2-[4-[4-[(4-imidazo[1,2-a]pyridin-3-yl-5-methyl-pyrimidin-2-yl)amino]-3-methoxy-phenyl]piperazin-1-yl]ethanol]: the half-inhibitory concentration (IC50) is 235 nM.

With `COc1cc(C2CCN(C(C)=O)C(C)C2)ccc1Nc1ncc(Cl)c(-c2cnc3ccccn23)n1` (stereo not drawn) [Example 59.1, 1-[4-[4-[(5-chloro-4-imidazo[1,2-a]pyridin-3-yl-pyrimidin-2-yl)amino]-3-methoxy-phenyl]-2-methyl-1-piperidyl]ethanone], the IC50 is 17 nM.

As for `COc1ccc(N2CCN(C(=O)CN(C)C)CC2)cc1Nc1ncc(Cl)c(-c2cnn3ccccc23)n1` [Example 152, 1-[4-[3-[(5-chloro-4-pyrazolo[1,5-a]pyridin-3-yl-pyrimidin-2-yl)amino]-4-methoxy-phenyl]piperazin-1-yl]-2-(dimethylamino)ethanone], the IC50 amounted to 25 nM. As for `COc1ccc(N2CC[C@@H](O)C2)cc1Nc1ncc(Cl)c(-c2cnc3ccccn23)n1` [Example 3.18, (3R)-1-[3-[(5-chloro-4-imidazo[1,2-a]pyridin-3-yl-pyrimidin-2-yl)amino]-4-methoxy-phenyl]pyrrolidin-3-ol], the figure is 41 nM; as for `COc1cc(N2CC3CN(CCO)CC(C2)O3)ccc1Nc1ncc(F)c(-c2cnn3ccccc23)n1` [Example 175, 2-[7-[4-[(5-fluoro-4-pyrazolo[1,5-a]pyridin-3-yl-pyrimidin-2-yl)amino]-3-methoxy-phenyl]-9-oxa-3,7-diazabicyclo[3.3.1]nonan-3-yl]ethanol], 14 nM.

Turning to `COc1cc(N2CCNCC2)ccc1Nc1ncc(Cl)c(-c2cnc3ccc(C#N)cn23)n1` [Example 266, 3-[5-chloro-2-(2-methoxy-4-piperazin-1-yl-anilino)pyrimidin-4-yl]imidazo[1,2-a]pyridine-6-carbonitrile], the IC50 stood at 29 nM. As for `CNCc1ccn2c(-c3nc(Nc4ccc(N5CCN(C(C)=O)CC5)cc4OC)ncc3Cl)cnc2c1` [Example 186, 1-[4-[4-[[5-chloro-4-[7-(methylaminomethyl)imidazo[1,2-a]pyridin-3-yl]pyrimidin-2-yl]amino]-3-methoxy-phenyl]piperazin-1-yl]ethanone], the figure is 36 nM; as for `COc1cc(N2CCN(CC(C)(C)O)CC2)ccc1Nc1ncc(F)c(-c2cnc3ccccn23)n1` [Example 91, 1-[4-[4-[(5-fluoro-4-imidazo[1,2-a]pyridin-3-yl-pyrimidin-2-yl)amino]-3-methoxy-phenyl]piperazin-1-yl]-2-methyl-propan-2-ol], 35 nM. As for `COc1cc(N2CCN(C(=O)CO)CC2)ccc1Nc1ncc(Cl)c(-c2cnc3cc(C)ccn23)n1` [Example 251, 1-[4-[4-[[5-chloro-4-(7-methylimidazo[1,2-a]pyridin-3-yl)pyrimidin-2-yl]amino]-3-methoxy-phenyl]piperazin-1-yl]-2-hydroxy-ethanone], the IC50 came out at 9 nM. As for `COc1ccc(N2CC[C@H](N(C)C)C2)cc1Nc1ncc(Cl)c(-c2cnc3ccccn23)n1` [Example 3.17, 5-chloro-N-[5-[(3S)-3-dimethylaminopyrrolidin-1-yl]-2-methoxy-phenyl]-4-imidazo[1,2-a]pyridin-3-yl-pyrimidin-2-amine], the figure is 125 nM; as for `COc1cc(N2CCN(C(=O)[C@@H](C)OC)CC2)ccc1Nc1ncc(Cl)c(-c2cnc3ccccn23)n1` [Example 25.5, (2R)-1-[4-[4-[(5-chloro-4-imidazo[1,2-a]pyridin-3-yl-pyrimidin-2-yl)amino]-3-methoxy-phenyl]piperazin-1-yl]-2-methoxy-propan-1-one], 9 nM. Under `COc1cc(O[C@@H]2CCN(S(C)(=O)=O)C2)ccc1Nc1ncc(Cl)c(-c2cnc3ccccn23)n1` [Example 11, 5-chloro-4-imidazo[1,2-a]pyridin-3-yl-N-[2-methoxy-4-[(3R)-1-methylsulfonylpyrrolidin-3-yl]oxy-phenyl]pyrimidin-2-amine] stands 18 nM; under `COc1cc(C2CCN(C(C)=O)CC2)ccc1Nc1ncc(C2CC2)c(-c2cnc3c(F)cccn23)n1` [Example 202, 1-[4-[4-[[5-cyclopropyl-4-(8-fluoroimidazo[1,2-a]pyridin-3-yl)pyrimidin-2-yl]amino]-3-methoxy-phenyl]-1-piperidyl]ethanone], 96 nM; under `CNC(=O)[C@H](C)Oc1ccc(Nc2ncc(Cl)c(-c3cnc4c(F)cccn34)n2)c(OC)c1` [Example 218, (2S)-2-[4-[[5-chloro-4-(8-fluoroimidazo[1,2-a]pyridin-3-yl)pyrimidin-2-yl]amino]-3-methoxy-phenoxy]-N-methyl-propanamide], 7 nM. As to `COc1cc(N2CCN(C(=O)N(C)CCO)CC2)ccc1Nc1ncc(Cl)c(-c2cnc3ccccn23)n1` [Example 47.1, 4-[4-[(5-chloro-4-imidazo[1,2-a]pyridin-3-yl-pyrimidin-2-yl)amino]-3-methoxy-phenyl]-N-(2-hydroxyethyl)-N-methyl-piperazine-1-carboxamide], the IC50 amounted to 9 nM. As for `COc1cc(C(=O)N2C[C@@H]3C[C@H]2CN3C)ccc1Nc1ncc(Cl)c(-c2cnc3ccccn23)n1` [Example 31, [4-[(5-chloro-4-imidazo[1,2-a]pyridin-3-yl-pyrimidin-2-yl)amino]-3-methoxy-phenyl]-[(1S,4S)-5-methyl-2,5-diazabicyclo[2.2.1]heptan-2-yl]methanone], the figure is 21 nM. As for `COc1cc(N2CCN(C(=O)C(C)(C)O)CC2)ccc1Nc1ncc(Cl)c(-c2cnc3ccccn23)n1` [Example 25.6, 1-[4-[4-[(5-chloro-4-imidazo[1,2-a]pyridin-3-yl-pyrimidin-2-yl)amino]-3-methoxy-phenyl]piperazin-1-yl]-2-hydroxy-2-methyl-propan-1-one], the figure is 11 nM.
